Measured values published in EP0307172A2, “Improvements in or relating to specific 5-HT3 antagonists” (ELI LILLY AND COMPANY, priority 1987, dated 1989).

Target: T1, 5-HT₃ receptor (Rattus norvegicus, UniProt P35563)
T1 construct: from tissue
T1 sequence (P35563 24-483): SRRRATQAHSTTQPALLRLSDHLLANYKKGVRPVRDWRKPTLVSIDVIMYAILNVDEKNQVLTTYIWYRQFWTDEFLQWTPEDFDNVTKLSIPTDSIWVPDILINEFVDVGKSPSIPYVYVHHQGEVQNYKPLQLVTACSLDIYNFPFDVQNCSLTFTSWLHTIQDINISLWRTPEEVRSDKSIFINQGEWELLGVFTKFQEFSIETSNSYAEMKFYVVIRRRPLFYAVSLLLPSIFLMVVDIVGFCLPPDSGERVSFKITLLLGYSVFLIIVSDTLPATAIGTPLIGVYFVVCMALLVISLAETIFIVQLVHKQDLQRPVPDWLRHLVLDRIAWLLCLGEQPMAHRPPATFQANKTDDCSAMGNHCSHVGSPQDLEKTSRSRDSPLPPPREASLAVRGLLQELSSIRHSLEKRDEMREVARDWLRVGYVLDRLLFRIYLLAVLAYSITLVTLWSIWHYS
Test: Inhibition of serotonin-induced Von Bezold-Jarisch reflex in rats
Type: in vivo
Details: 15 minutes prior to 5-HT; for inhibition at 0.01 mg/kg / inhibition at 0.03 mg/kg / inhibition at 0.001 mg/kg / inhibition at 0.003 mg/kg: rat, iv, read-out: Percent Inhibition of Reflex in Rats; for inhibition at 0.03 mg/kg: 0.03 mg/kg I.V.; for inhibition at 0.001 mg/kg: 0.001 mg/kg I.V.
Excerpt: The compounds of Formula I of this invention are long-acting, orally effective specific 5-HT₃ receptor antagonists, rendering them useful for the treatment of migraine. Because of this mechanism, the compounds of this invention should also be useful for treating emesis, motion sickness, ischemic bowel disease, diabetic gastric paresis, relaxation of the gastro-intestinal tract for instrumentation, other gastro-intestinal pain following surgery, obstetrics or as in abdominal cramps, and for treating CNS disorders such as schizophrenia and anxiety. The ability of these compounds to antagonize the effects of 5-HT was assessed by their inhibition of the Von Bezold-Jarisch reflex induced by 5-HT injected intravenously into the rat (See Paintal, Physiol. Rev., 53, 159 (1973)). When administered by the intravenous route 15 minutes prior to the administration of 5-HT, the compounds of this invention were effective in inhibiting the serotonin-induced Bezold-Jarisch reflex as summarized in Table 1 below: Table 1

Q: With `CC1Cc2cccc(C(=O)N[C@@H]3C[C@H]4CC[C@@H](C3)N4C)c2O1` (mixture of isomers) [Example 38, dl-exo-2,3-dihydro-2-methyl-N-(8-methyl-8-azabicyclo[3.2.1]oct-3-yl)-7-benzofurancarboxamide (Z)-2-butenedioate] as the molecule, how does the inhibition at 0.01 mg/kg (0.01 mg/kg I.V.) read?
A: 26%

Q: What about the inhibition at 0.03 mg/kg of the same molecule?
A: 51%

Q: For `Cc1cc2c(c(C(=O)O[C@H]3C[C@H]4CC[C@@H](C3)N4C)c1)OC(C)(C)C2` [Example 37, Endo-2,3-dihydro-2,2,5-trimethyl-7-benzofurancarboxylic acid, 8-methyl-8-azabicyclo[3.2.1]oct-3-yl ester (Z)-2-butenedioate], which inhibition at 0.01 mg/kg (0.01 mg/kg I.V.) is on record?
A: 4%

Q: `Cc1cc2c(c(C(=O)O[C@H]3C[C@H]4CC[C@@H](C3)N4C)c1)OC(C)C2` (mixture of isomers) [Example 40, dl-endo-2,3-dihydro-2,5-dimethyl-7-benzofurancarboxylic acid, 8-methyl-8-azabicyclo[3.2.1]oct-3-yl ester (Z)-2-butenedioate] was tested. Which inhibition at 0.001 mg/kg did it give?
A: 3%

Q: And the inhibition at 0.003 mg/kg (0.003 mg/kg I.V.)?
A: 14%

Q: And the inhibition at 0.01 mg/kg (0.01 mg/kg I.V.)?
A: 67%

Q: For `COc1c(Cl)cc(C(=O)N[C@H]2C[C@H]3CC[C@@H](C2)N3C)c2c1CC(C)(C)O2` [Example 57, Endo-5-chloro-2,3-dihydro-4-methoxy-2,2-dimethyl-N-(8-methyl-8-azabicyclo[3.2.1]oct-3-yl)-7-benzofurancarboxamide (Z)-2-butenedioate], which inhibition at 0.01 mg/kg (0.01 mg/kg I.V.) is on record?
A: 3%

Q: With `CN1C2CCC1CC(NC(=O)c1cc(F)cc3c1OC(C)(C)C3)C2` (stereo not drawn) [Example 58, 5-Fluoro-2,3-dihydro-2,2-dimethyl-N-(8-methyl-8-azabicyclo[3.2.1]oct-3-yl)-7-benzofurancarboxamide (Z)-2-butenedioate] as the molecule, how does the inhibition at 0.01 mg/kg (0.01 mg/kg I.V.) read?
A: 71%

Q: With `CN1[C@@H]2CCC[C@H]1C[C@@H](NC(=O)c1cccc3c1OC(C)(C)C3)C2` [Example 55, Endo-2,3-dihydro-2,2-dimethyl-N-(9-methyl-9-azabicyclo[3.3.1]non-3-yl)-7-benzofurancarboxamide (Z)-2-butenedioate] as the molecule, how does the inhibition at 0.003 mg/kg (0.003 mg/kg I.V.) read?
A: 88%

Q: With `CC1Cc2cc(F)cc(C(=O)O[C@H]3C[C@H]4CC[C@@H](C3)N4C)c2O1` (mixture of isomers) [Example 31, dl-endo-5-fluoro-2,3-dihydro-2-methyl-7-benzofurancarboxylic acid, 8-methyl-8-azabicyclo[3.2.1]oct-3-yl ester (Z)-2-butenedioate] as the molecule, how does the inhibition at 0.01 mg/kg (0.01 mg/kg I.V.) read?
A: 32%

Q: How did the inhibition at 0.003 mg/kg (0.003 mg/kg I.V.) turn out when `CN1[C@@H]2CC[C@H]1C[C@H](NC(=O)c1cccc3c1OC(C)(C)C3)C2` [Example 39, Exo-2,3-dihydro-2,2-dimethyl-N-(8-methyl-8-azabicyclo[3.2.1]oct-3-yl)-7-benzofurancarboxamide (Z)-2-butenedioate] was run?
A: -2%

Q: And the inhibition at 0.01 mg/kg (0.01 mg/kg I.V.)?
A: 53%

Q: And the inhibition at 0.03 mg/kg?
A: 82%

Q: `CN1[C@@H]2CCC[C@H]1C[C@@H](NC(=O)c1cc(Cl)cc3c1OC(C)(C)C3)C2` [Example 54] was tested. Which inhibition at 0.003 mg/kg (0.003 mg/kg I.V.) did it give?
A: 84%

Q: And the inhibition at 0.01 mg/kg (0.01 mg/kg I.V.)?
A: 94%

Q: `CN1[C@@H]2CC[C@H]1C[C@@H](NC(=O)c1cccc3c1SC(C)(C)C3)C2` [Example 16, Endo-2,3-dihydro-2,2-dimethyl-N-(8-methyl-8-azabicyclo[3.2.1]oct-3-yl)benzo[b]thiophene-7-carboxamide (Z)-2-butenedioate] was tested. Which inhibition at 0.01 mg/kg (0.01 mg/kg I.V.) did it give?
A: 0.1%

Q: What does the source list for `CN1[C@@H]2CC[C@H]1C[C@@H](NC(=O)c1cc(Cl)cc3c1OC(C)(C)CC3)C2` [Example 61, Endo-2,2-dimethyl-6-chloro-N-(8-methyl-8-azabicyclo[3.2.1]oct-3-yl)-8-chromancarboxamide (Z)-2-butenedioate]?
A: inhibition at 0.003 mg/kg (0.003 mg/kg I.V.): 30%; inhibition at 0.01 mg/kg (0.01 mg/kg I.V.): 91%

Q: `CN1[C@@H]2CC[C@H]1C[C@@H](NC(=O)c1c(Cl)ccc3c1OC(C)(C)C3)C2` [Example 50, Endo-2,2-dimethyl-2,3-dihydro-6-chloro-N-(8-methyl-8-azabicyclo[3.2.1]oct-3-yl)-7-benzofurancarboxamide (Z)-2-butenedioate] was tested. Which inhibition at 0.01 mg/kg (0.01 mg/kg I.V.) did it give?
A: -3%

Q: What does the source list for `CC1(C)Cc2cccc(C(=O)NC3CN4CCC3CC4)c2O1` (stereo not drawn) [Example 60, 2,3-Dihydro-2,2-dimethyl-N-(1-azabicyclo[2.2.2]oct-3-yl)-7-benzofurancarboxamide (Z)-2-butenedioate]?
A: inhibition at 0.001 mg/kg: 25%; inhibition at 0.003 mg/kg (0.003 mg/kg I.V.): 87%

Q: With `CN1[C@@H]2CC[C@H]1C[C@@H](NC(=O)c1cc(Cl)c(N)c3c1OC(C)(C)C3)C2` [Example 56, Endo-2,3-dihydro-4-amino-5-chloro-2,2-dimethyl-N-(8-methyl-8-azabicyclo[3.2.1]oct-3-yl)-7-benzofurancarboxamide (Z)-2-butenedioate] as the molecule, how does the inhibition at 0.003 mg/kg (0.003 mg/kg I.V.) read?
A: 25%

Q: And the inhibition at 0.01 mg/kg (0.01 mg/kg I.V.)?
A: 89%

Q: For `CN1[C@@H]2CC[C@H]1C[C@@H](NC(=O)c1cccc3c1CC(C)(C)O3)C2` [Example 22, Endo-2,3-dihydro-2,2-dimethyl-N-(8-methyl-8-azabicyclo[3.2.1]oct-3-yl)-4-benzofurancarboxamide (Z)-2-butenedioate], which inhibition at 0.01 mg/kg (0.01 mg/kg I.V.) is on record?
A: -4%

Q: For `CN1[C@@H]2CC[C@H]1C[C@@H](NC(=O)c1cccc3c1OC(C)(C)C3)C2` [Example 17, Endo-2,3-dihydro-2,2-dimethyl-N-(8-methyl-8-azabicyclo[3.2.1]oct-3-yl)-7-benzofurancarboxamide (Z)-2-butenedioate], which inhibition at 0.003 mg/kg (0.003 mg/kg I.V.) is on record?
A: -2%

Q: And the inhibition at 0.01 mg/kg (0.01 mg/kg I.V.)?
A: 53%

Q: What about the inhibition at 0.03 mg/kg of the same molecule?
A: 82%

Q: For `CN1[C@@H]2CC[C@H]1C[C@@H](NC(=O)c1ccc3c(c1)OC(C)(C)C3)C2` [Example 23, Endo-2,3-dihydro-2,2-dimethyl-N-(8-methyl-8-azabicyclo[3.2.1]oct-3-yl)-6-benzofurancarboxamide (Z)-2-butenedioate], which inhibition at 0.01 mg/kg (0.01 mg/kg I.V.) is on record?
A: -8%

Q: `CN1[C@@H]2CC[C@H]1C[C@@H](OC(=O)c1cc(Cl)cc3c1OC(C)(C)C3)C2` [Example 25, Endo-5-chloro-2,3-dihydro-2,2-dimethyl-7-benzofurancarboxylic acid, 8-methyl-8-azabicyclo[3.2.1]oct-3-yl ester (Z)-2-butenedioate] was tested. Which inhibition at 0.001 mg/kg did it give?
A: 10%

Q: What about the inhibition at 0.003 mg/kg (0.003 mg/kg I.V.) of the same molecule?
A: 19%

Q: What about the inhibition at 0.01 mg/kg (0.01 mg/kg I.V.) of the same molecule?
A: 83%

Q: For `CC1(C)CCc2cccc(C(=O)NC3CN4CCC3CC4)c2O1` (stereo not drawn) [Example 53, N-(1-azabicyclo[2.2.2]oct-3-yl)-3,4-dihydro-2,2-dimethyl-2H-1-benzopyran-8-carboxamide (Z)-2-butenedioate], which inhibition at 0.001 mg/kg is on record?
A: 50%

Q: And the inhibition at 0.003 mg/kg (0.003 mg/kg I.V.)?
A: 93%

Q: For `CN1[C@@H]2CC[C@H]1C[C@H](OC(=O)c1cc(Cl)cc3c1OC(C)(C)C3)C2` [Example 26, Exo-2,2-dimethyl-5-chloro-2,3-dihydro-7-benzofurancarboxylic acid, 8-methyl-8-azabicyclo[3.2.1]oct-3-yl ester (Z)-2-butenedioate], which inhibition at 0.01 mg/kg (0.01 mg/kg I.V.) is on record?
A: 2%

Q: Which inhibition at 0.01 mg/kg (0.01 mg/kg I.V.) does the source give for `COc1cc2c(c(C(=O)O[C@H]3C[C@H]4CC[C@@H](C3)N4C)c1)OC(C)C2` (mixture of isomers) [Example 28, dl-endo-2-methyl-5-methoxy-2,3-dihydro-7-benzofurancarboxylic acid, 8-methyl-8-azabicyclo[3.2.1]-oct-3-yl ester (Z)-2-butenedioate] here?
A: 4%

Q: Which results are given for `CC1Cc2cc(Cl)cc(C(=O)O[C@H]3C[C@H]4CC[C@@H](C3)N4C)c2O1` (mixture of isomers) [Example 34, dl-endo-5-chloro-2,3-dihydro-2-methyl-7-benzofurancarboxylic acid, 8-methyl-8-azabicyclo[3.2.1]oct-3-yl ester (Z)-2-butenedioate]?
A: inhibition at 0.001 mg/kg: 6%; inhibition at 0.003 mg/kg (0.003 mg/kg I.V.): 51%; inhibition at 0.01 mg/kg (0.01 mg/kg I.V.): 69%

Q: `CN1[C@@H]2CC[C@H]1C[C@@H](NC(=O)c1ccc(Cl)c3c1OC(C)(C)C3)C2` [Example 18, Endo-4-chloro-2,3-dihydro-2,2-dimethyl-N-(8-methyl-8-azabicyclo[3.2.1]oct-3-yl)-7-benzofurancarboxamide (Z)-2-butenedioate] was tested. Which inhibition at 0.01 mg/kg (0.01 mg/kg I.V.) did it give?
A: 1.2%

Q: How did the “Percent Inhibition of Reflex in Rats” value (0.003 mg/kg I.V.) turn out when `CN1C2CCC1CC(NC(=O)c1cc(Cl)cc3c1OC(C)(C)C3)C2.O=C(O)/C=C\C(=O)O` (stereo not drawn) [Example 30, Exo-2,2-dimethyl-5-chloro-2,3-dihydro-N-(8-methyl-8-azabicyclo[3.2.1]oct-3-yl)-7-benzofurancarboxamide (Z)-2-butenedioate] was run?
A: 26%

Q: And the “Percent Inhibition of Reflex in Rats” value (0.01 mg/kg I.V.)?
A: 67%

Q: For `COc1ccc(C(=O)N[C@H]2C[C@H]3CC[C@@H](C2)N3C)c2c1CC(C)(C)O2` [Example 52, Endo-2,3-dihydro-4-methoxy-2,2-dimethyl-N-(8-methyl-8-azabicyclo[3.2.1]oct-3-yl)-7-benzofurancarboxamide (Z)-2-butenedioate], which inhibition at 0.003 mg/kg (0.003 mg/kg I.V.) is on record?
A: -7%
